GI50 and TGI data for 21 molecules are collected here from PubChem BioAssay (NCI).

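Following 48 hours of exposure in 96-well plates, responses at five concentrations were used to interpolate endpoints linearly. GI50: concentration for 50% inhibition of growth. TGI: total growth inhibition.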 Bounds are passed on as bounds.

The test system of the first assay is NCI-H23 lung. The experiment in a line: growth of human tumour cells (NCI), 48 h.
As to `N=C(N)c1ccc(-c2ccc(-c3cc(Cl)cc(Cl)c3)o2)nc1`, the GI50 is 1.96 µM and the TGI came to 3.93 µM.
Turning to `CCOC(=O)CSc1nc(N)c2c(-c3ccc(OC)c(OC)c3)c3c(nc2n1)CCCC3`, the TGI is greater than 100 µM.
In turn, `CNC(=O)OC(C)CN1c2ccccc2Sc2ccc(Cl)cc21` (centres undefined) yielded a TGI greater than 10 µM.
For the molecule `O=C(CCCCCCC(=O)Nc1ccc(N(CCCl)CCCl)cc1)NO`, the GI50 was 2.1 µM and the TGI stood at 8.64 µM.
`CN1CC[C@@]2(c3cccc(O)c3)CC(=O)/C(=C/c3ccccc3)[C@H]1C2` registered a TGI of 46.4 µM.
The same measure, in the same setting: next, `O=C(N/N=C(/c1ccccc1)C(F)(F)F)c1ccncc1`: greater than 100 µM; `ONc1ncnc2nc[nH]c12`: greater than 100 µM; `CCCc1[nH]c(SCCCCCCCCSc2nc(-c3ccc(F)cc3)c(CCC)[nH]2)nc1-c1ccc(F)cc1`: 30.6 µM.
The same measure, in the same setting: next, `O=S(=O)(O)c1ccc2cccc(N=Nc3c(O)ccc4ccccc34)c2c1`: greater than 100 µM.
With `COc1ccc2nc(-c3ccc(-c4noc(-c5cc(OC)c(OC)c(OC)c5)n4)cc3)[nH]c2c1`, the GI50 is 4.1 µM and the TGI is 20 µM.
Consider `COc1ccc(/C(=C2/O[C@@H]([C@H]3COC(C)(C)O3)[C@H]3OC(C)(C)O[C@@H]23)c2cc(OC)c(OC)c(OC)c2)cc1O`, for which the GI50 was 21.8 µM and the TGI amounted to 74.9 µM.
`Cn1c(=O)c2c(nc(-n3nc(-c4ccc(Cl)cc4)cc3N)n2C)n(C)c1=O` came in with a TGI greater than 100 µM.
The molecule `N=c1c2c(C(N)=O)cn(C3OC(CO)C(O)C3O)c2ncn1O` (centres undefined) had a TGI of 0.358 µM.
`CCS(=O)(=O)Nc1ccc(Nc2c3ccccc3nc3ccccc23)c(OC)c1` displayed a TGI of 3.79 µM.
`Cc1nc(N)nc(N)c1-c1ccc(Cl)c(Cl)c1` registered a TGI greater than 81 µM.
`Cc1cccc2nc3c(C(=O)NCCN(C)C)cccc3cc12` returned a TGI of 5.02 µM.
Take `C[C@]12CC[C@@H]3c4ccc(OP(=O)(O)O)cc4CC[C@H]3[C@@H]1CCC2=O`: the TGI was greater than 100 µM.
In turn, `CCSCCC(N)C(=O)O` (centres undefined) showed a TGI greater than 100 µM.
With `COc1ccc2nc(N/N=C/C(C)=N/Nc3cc(C)c4cc(OC)ccc4n3)cc(C)c2c1`, the TGI turned out to be 48.9 µM.
As to `CN(C)CC(=O)Nc1ccc(Cn2nnc3c2C(=O)c2nnn(Cc4ccc(NC(=O)CN(C)C)cc4)c2C3=O)cc1`, the GI50 is 0.192 µM and the TGI came out at 0.488 µM.

A further assay relates to OVCAR-8 ovarian. Kind of assay: growth of human tumour cells (NCI), 48 h.
Take `CCN(CC)CC(C)Nc1ccc([N+](=O)[O-])c2sc3ccccc3c(=O)c12` (centres undefined): the GI50 was 2.58 µM and the TGI was greater than 100 µM.
As for `N=C(N)c1ccc(-c2ccc(-c3cc(Cl)cc(Cl)c3)o2)nc1`, the GI50 was 1.88 µM and the TGI was determined as 3.83 µM.
In turn, `CCOC(=O)CSc1nc(N)c2c(-c3ccc(OC)c(OC)c3)c3c(nc2n1)CCCC3` yielded a TGI of 87.4 µM.
Turning to `CNC(=O)OC(C)CN1c2ccccc2Sc2ccc(Cl)cc21` (centres undefined), the TGI was greater than 10 µM.
In the case of `O=C(CCCCCCC(=O)Nc1ccc(N(CCCl)CCCl)cc1)NO`, the GI50 is 1.79 µM and the TGI is 21 µM.
In turn, `CN1CC[C@@]2(c3cccc(O)c3)CC(=O)/C(=C/c3ccccc3)[C@H]1C2` gave a TGI greater than 48 µM.
Molecule `O=C(N/N=C(/c1ccccc1)C(F)(F)F)c1ccncc1` had a TGI greater than 100 µM.
In turn, `ONc1ncnc2nc[nH]c12` displayed a TGI greater than 100 µM.
Molecule `CCCc1[nH]c(SCCCCCCCCSc2nc(-c3ccc(F)cc3)c(CCC)[nH]2)nc1-c1ccc(F)cc1` registered a TGI greater than 100 µM.
Regarding `O=S(=O)(O)c1ccc2cccc(N=Nc3c(O)ccc4ccccc34)c2c1`, the TGI is greater than 100 µM.
Turning to `COc1ccc2nc(-c3ccc(-c4noc(-c5cc(OC)c(OC)c(OC)c5)n4)cc3)[nH]c2c1`, the GI50 is 4.93 µM and the TGI turned out to be 26.4 µM.
As to `COc1ccc(/C(=C2/O[C@@H]([C@H]3COC(C)(C)O3)[C@H]3OC(C)(C)O[C@@H]23)c2cc(OC)c(OC)c(OC)c2)cc1O`, the GI50 is 8.56 µM and the TGI is greater than 100 µM.
Turning to `Cn1c(=O)c2c(nc(-n3nc(-c4ccc(Cl)cc4)cc3N)n2C)n(C)c1=O`, the TGI is greater than 100 µM.
Take `N=c1c2c(C(N)=O)cn(C3OC(CO)C(O)C3O)c2ncn1O` (centres undefined): the TGI was determined as 0.607 µM.
Regarding `CCS(=O)(=O)Nc1ccc(Nc2c3ccccc3nc3ccccc23)c(OC)c1`, the TGI was determined as 7.71 µM.
On the same count and under the same terms, next, `Cc1nc(N)nc(N)c1-c1ccc(Cl)c(Cl)c1`: greater than 100 µM; `Cc1cccc2nc3c(C(=O)NCCN(C)C)cccc3cc12`: 6.58 µM; `C[C@]12CC[C@@H]3c4ccc(OP(=O)(O)O)cc4CC[C@H]3[C@@H]1CCC2=O`: greater than 100 µM.
Take `CCSCCC(N)C(=O)O` (centres undefined): the TGI was greater than 100 µM.
The molecule `COc1ccc2nc(N/N=C/C(C)=N/Nc3cc(C)c4cc(OC)ccc4n3)cc(C)c2c1` yielded a TGI of 39.5 µM.
Consider `CN(C)CC(=O)Nc1ccc(Cn2nnc3c2C(=O)c2nnn(Cc4ccc(NC(=O)CN(C)C)cc4)c2C3=O)cc1`, for which the GI50 was 0.228 µM and the TGI was determined as 0.679 µM.

The next assay deals with SNB-19 CNS. The experiment in a line: growth of human tumour cells (NCI), 48 h.
`CCN(CC)CC(C)Nc1ccc([N+](=O)[O-])c2sc3ccccc3c(=O)c12` (centres undefined): the GI50 was 2.07 µM and the TGI amounted to 32.7 µM.
Take `N=C(N)c1ccc(-c2ccc(-c3cc(Cl)cc(Cl)c3)o2)nc1`: the GI50 is 1.63 µM and the TGI was 3.1 µM.
Consider `CCOC(=O)CSc1nc(N)c2c(-c3ccc(OC)c(OC)c3)c3c(nc2n1)CCCC3`, for which the TGI was greater than 100 µM.
In the case of `CNC(=O)OC(C)CN1c2ccccc2Sc2ccc(Cl)cc21` (centres undefined), the TGI was greater than 10 µM.
Take `O=C(CCCCCCC(=O)Nc1ccc(N(CCCl)CCCl)cc1)NO`: the GI50 is 4.12 µM and the TGI worked out at 29 µM.
For `CN1CC[C@@]2(c3cccc(O)c3)CC(=O)/C(=C/c3ccccc3)[C@H]1C2`, the TGI stood at 19.5 µM.
Turning to `O=C(N/N=C(/c1ccccc1)C(F)(F)F)c1ccncc1`, the TGI was greater than 100 µM.
In the case of `ONc1ncnc2nc[nH]c12`, the TGI is greater than 100 µM.
`CCCc1[nH]c(SCCCCCCCCSc2nc(-c3ccc(F)cc3)c(CCC)[nH]2)nc1-c1ccc(F)cc1`: the TGI was greater than 100 µM.
For `O=S(=O)(O)c1ccc2cccc(N=Nc3c(O)ccc4ccccc34)c2c1`, the TGI is greater than 100 µM.
Consider `COc1ccc2nc(-c3ccc(-c4noc(-c5cc(OC)c(OC)c(OC)c5)n4)cc3)[nH]c2c1`, for which the GI50 is 12.7 µM and the TGI amounted to 36.8 µM.
As for `COc1ccc(/C(=C2/O[C@@H]([C@H]3COC(C)(C)O3)[C@H]3OC(C)(C)O[C@@H]23)c2cc(OC)c(OC)c(OC)c2)cc1O`, the GI50 was 5.33 µM and the TGI is greater than 100 µM.
The molecule `Cn1c(=O)c2c(nc(-n3nc(-c4ccc(Cl)cc4)cc3N)n2C)n(C)c1=O` came in with a TGI greater than 100 µM.
The same measure, in the same setting: under `N=c1c2c(C(N)=O)cn(C3OC(CO)C(O)C3O)c2ncn1O` (centres undefined) stands greater than 100 µM; under `CCS(=O)(=O)Nc1ccc(Nc2c3ccccc3nc3ccccc23)c(OC)c1`, 6.41 µM.
Still for that read-out and setting: under `Cc1nc(N)nc(N)c1-c1ccc(Cl)c(Cl)c1` stands greater than 100 µM; under `Cc1cccc2nc3c(C(=O)NCCN(C)C)cccc3cc12`, 5.2 µM; under `C[C@]12CC[C@@H]3c4ccc(OP(=O)(O)O)cc4CC[C@H]3[C@@H]1CCC2=O`, greater than 100 µM.
`CCSCCC(N)C(=O)O` (centres undefined) yielded a TGI greater than 100 µM.
`COc1ccc2nc(N/N=C/C(C)=N/Nc3cc(C)c4cc(OC)ccc4n3)cc(C)c2c1`: the TGI worked out at 55.8 µM.

For another assay, the system named is T-47D breast. Kind of assay: growth of human tumour cells (NCI), 48 h.
As for `CCN(CC)CC(C)Nc1ccc([N+](=O)[O-])c2sc3ccccc3c(=O)c12` (centres undefined), the GI50 is 2.05 µM and the TGI amounted to 13.2 µM.
In turn, `CCOC(=O)CSc1nc(N)c2c(-c3ccc(OC)c(OC)c3)c3c(nc2n1)CCCC3` showed a TGI greater than 100 µM.
Take `CNC(=O)OC(C)CN1c2ccccc2Sc2ccc(Cl)cc21` (centres undefined): the TGI was greater than 10 µM.
Consider `O=C(CCCCCCC(=O)Nc1ccc(N(CCCl)CCCl)cc1)NO`, for which the GI50 is 1.63 µM and the TGI was found to be 7.37 µM.
`O=C(N/N=C(/c1ccccc1)C(F)(F)F)c1ccncc1`: the TGI was greater than 100 µM.
For the molecule `O=S(=O)(O)c1ccc2cccc(N=Nc3c(O)ccc4ccccc34)c2c1`, the TGI is greater than 100 µM.
As to `COc1ccc2nc(-c3ccc(-c4noc(-c5cc(OC)c(OC)c(OC)c5)n4)cc3)[nH]c2c1`, the GI50 was 14.7 µM and the TGI is 35.9 µM.
With `COc1ccc(/C(=C2/O[C@@H]([C@H]3COC(C)(C)O3)[C@H]3OC(C)(C)O[C@@H]23)c2cc(OC)c(OC)c(OC)c2)cc1O`, the GI50 was 44.3 µM and the TGI was greater than 100 µM.
For the molecule `N=c1c2c(C(N)=O)cn(C3OC(CO)C(O)C3O)c2ncn1O` (centres undefined), the TGI stood at 3.69 µM.
In turn, `Cc1nc(N)nc(N)c1-c1ccc(Cl)c(Cl)c1` returned a TGI greater than 100 µM.
Molecule `C[C@]12CC[C@@H]3c4ccc(OP(=O)(O)O)cc4CC[C@H]3[C@@H]1CCC2=O` showed a TGI greater than 100 µM.
With `CCSCCC(N)C(=O)O` (centres undefined), the TGI was greater than 100 µM.
As for `COc1ccc2nc(N/N=C/C(C)=N/Nc3cc(C)c4cc(OC)ccc4n3)cc(C)c2c1`, the TGI was greater than 73.6 µM.
On to `CN(C)CC(=O)Nc1ccc(Cn2nnc3c2C(=O)c2nnn(Cc4ccc(NC(=O)CN(C)C)cc4)c2C3=O)cc1`, for which the GI50 is 0.166 µM and the TGI was found to be 0.449 µM.

The subject of the next assay is TK-10 renal. Kind of assay: growth of human tumour cells (NCI), 48 h.
Consider `CCN(CC)CC(C)Nc1ccc([N+](=O)[O-])c2sc3ccccc3c(=O)c12` (centres undefined), for which the GI50 was 1.91 µM and the TGI was determined as 54.2 µM.
For the molecule `N=C(N)c1ccc(-c2ccc(-c3cc(Cl)cc(Cl)c3)o2)nc1`, the GI50 was 1.87 µM and the TGI is 3.5 µM.
Take `CCOC(=O)CSc1nc(N)c2c(-c3ccc(OC)c(OC)c3)c3c(nc2n1)CCCC3`: the TGI was greater than 100 µM.
As for `CNC(=O)OC(C)CN1c2ccccc2Sc2ccc(Cl)cc21` (centres undefined), the TGI is greater than 10 µM.
For `CN1CC[C@@]2(c3cccc(O)c3)CC(=O)/C(=C/c3ccccc3)[C@H]1C2`, the TGI was 29.2 µM.
Still for that read-out and setting: next, `O=C(N/N=C(/c1ccccc1)C(F)(F)F)c1ccncc1`: greater than 100 µM; `ONc1ncnc2nc[nH]c12`: greater than 100 µM; `CCCc1[nH]c(SCCCCCCCCSc2nc(-c3ccc(F)cc3)c(CCC)[nH]2)nc1-c1ccc(F)cc1`: greater than 100 µM.
Still for that read-out and setting: next, `O=S(=O)(O)c1ccc2cccc(N=Nc3c(O)ccc4ccccc34)c2c1`: greater than 100 µM.
With `COc1ccc2nc(-c3ccc(-c4noc(-c5cc(OC)c(OC)c(OC)c5)n4)cc3)[nH]c2c1`, the GI50 was 4.62 µM and the TGI amounted to 13 µM.
Taken in the same sequence, the figures for `COc1ccc(/C(=C2/O[C@@H]([C@H]3COC(C)(C)O3)[C@H]3OC(C)(C)O[C@@H]23)c2cc(OC)c(OC)c(OC)c2)cc1O` were 36.6 µM and 86.3 µM.
As for `Cn1c(=O)c2c(nc(-n3nc(-c4ccc(Cl)cc4)cc3N)n2C)n(C)c1=O`, the TGI is greater than 100 µM.
With `N=c1c2c(C(N)=O)cn(C3OC(CO)C(O)C3O)c2ncn1O` (centres undefined), the TGI is 0.426 µM.
Still for that read-out and setting: under `Cc1nc(N)nc(N)c1-c1ccc(Cl)c(Cl)c1` stands greater than 51.9 µM; under `C[C@]12CC[C@@H]3c4ccc(OP(=O)(O)O)cc4CC[C@H]3[C@@H]1CCC2=O`, greater than 100 µM.
`CCSCCC(N)C(=O)O` (centres undefined) displayed a TGI greater than 100 µM.
As to `COc1ccc2nc(N/N=C/C(C)=N/Nc3cc(C)c4cc(OC)ccc4n3)cc(C)c2c1`, the TGI amounted to 69.4 µM.
For `CN(C)CC(=O)Nc1ccc(Cn2nnc3c2C(=O)c2nnn(Cc4ccc(NC(=O)CN(C)C)cc4)c2C3=O)cc1`, the GI50 was 2.86 µM and the TGI stood at 7.58 µM.
